Reference: patent US10125078B1, “NSAID derivatives of omega-3 polyunsaturated acids as gamma secretase modulators” (Jiva Pharma, Inc., priority 2015, dated 2018)
pIC50: −log10 of the molar value. “And” between values parts separate entries of the source, which are not always exact repeats. Equal values may be shown once. Read-outs that look alike come from different tables or passages of the source.

Assays:
[1] = system: Aβ42 peptide; conditions: cited from earlier work
[2] = system: mild AD patients; conditions: cited from earlier work
[3] = target: T1, gamma-secretase (Homo sapiens, UniProt P49768); assay: gamma-secretase modulating activity in cell cultures of human neuroblastoma SHSY-5 cells, intracellular Aβ x-40 by ELISA; type: cell-based; conditions: for average signal triplicates: cells incubated 18 h, ELISA OD 450 nm; for signal nomalised to cells: normalised to collected cell mass; for sign-bkgr: signal minus background; for experiment 1 / experiment 2 / experiment 3: Aβ ELISA signal, 0 nM about 100; for bestfit2 / bestfit3 / bestfit1: fitted curve; for pIC50: read-out: calculated IC50
T1 construct: Fresh human neuroblastoma cells SHSY-5 were purchased from ATCC; host or cells: SH-SY5Y human neuroblastoma cells, untransfected
Procedure: The gamma-secretase modulating activity of Jiva compounds were determined in Cell Cultures of fresh human neuroblastoma SHSY-5 cells. The enzyme-linked immunosorbent assay (ELISA) is one of the most commonly used, reliable, and sensitive methods for quantitating the A β peptides. The detailed methods for the recovery of both soluble and deposited A β from brain tissue and the subsequent quantitation of the peptides by ELISA are thoroughly described in literature such as Stephen D. Schmidt, et al., “Amyloid, Enzyme-linked immunosorbent assay, ELISA, Extraction, Quantification”, Methods in Molecular Biology, vol. 849, DOI 10.1007/978-1-61779-551-0_34, Springer Science+Business Media, LLC 2012; Zeljko M. Svedruzic, et al., “Modulators of γ-Secretase Activity Can Facilitate the Toxic Side-Effects and Pathogenesis of Alzheimer's Disease”, PLOS ONE, 1 Jan. 2013|Volume 8|Issue 1; Catherine R. Burton et al., “The Amyloid-β Rise and γ-Secretase Inhibitor Potency Depend on the Level of Substrate Expression” Aug. 22, 2008 The Journal of Biological Chemistry 283, 22992-23003.
The well-studied γ-secretase inhibitor, semagacestat (WIKI) was used as a positive control in the above assays.
The following are procedures used for screening gamma-secretase modulating activity of Jiva compounds in cell cultures.
Protocol for Growing SHSY-5 Cells:
Fresh human neuroblastoma cells SHSY-5 were purchased from ATCC in the […]. All SHSY-5 cells were propagated and grown in p75 flasks, following the supplier's instructions. Briefly, SH-SY5Y cells were grown to confluence in Dulbecco's Modified Eagles Medium (DMEM) supplemented with 2 mM L-glutamine, 1× nonessential amino acids, and 0.22 micrometers filtered 10% heat inactivated fetal bovine serum (FBS) in a 5% CO2 humidified incubator at 37° C. Cultures were split twice a week and cells were seeded at 2.5×10^4 cells/cm^2. The cells were detached from the bottles after two phosphate buffer washes that were followed by 5 min treatment with 0.25% trypsine solution.
Protocol for Preparation of Jiva Compounds and the Initial Screening:
Jiva compounds were dissolved under sterile conditions in different volumes of molecular biology grade dimethylsulfoxide (DMSO) so that the final concentration was 200 mM, with the goal to screen in a concentration range from 50 to 1000 μM. Thus, between 1 μL to 20 µL of DMSO solution of each Jiva compound was added to 4 mL of sterile cell media with FBS adjusted to 1%. The cells were incubated with different compounds for 18 h (i.e. overnight). Following the incubation cells were tested for viability and morphology. The first viability criteria was attachment to the surface, the second viability criteria was resistance to trypan blue uptake. Only viable cells were harvested for ELISA screening.
Confluent cells were scraped from p25 cell-culture bottles and collected in pellets by centrifugation for 5 mins at 1000 g. To measure intracellular amyloid β, the centrifugation helps in concentrating Aβ1-40 peptides for measurements. About 40 micro grams of cell can be recovered from 4 mL cell medium in p25 cell culture bottles. The cell pellets were re-suspended in RIPA buffer and incubated on ice for 30 min.
RIPA buffer means 150 mM sodium chloride; 1% NP-40; 0.5% sodium deoxycholate; 0.1% SDS; 50 mM Tris pH 8.0.
Following lysis, the cell debris was separated by centrifugation, 1 h at 40,000×g. The clear supernatant was collected for ELISA measurements that followed immediately after the centrifugation.
ELISA measurements used IBL ELISA kits for Aβ x-40 using manufacturer's protocol and supplied standards. Briefly, for each measurement 100 μL sample was prepared from 12.5 μL lysis buffer and 87.5 μL ASSAYBUF solutions in each well. ASSAYBUF solution were supplied in the kit, and used to incubate cell lysate with anti-amyloid antibody attached to the wells in ELISA plates. The plate covered with plate-lid was incubated with gentle shaking overnight at 4° C. […]

[4] = compared with tarenflurbil; cited from earlier work
[5] = system: 4 year old children; conditions: cited from earlier work
[6] = 100000.0 nM, listed as JIVA002B
[7] = 1000000.0 nM, listed as JIVA002B

## C[C@@H](C(=O)O)c1ccc(-c2ccccc2)c(F)c1 [tarenflurbil]
[1]
  potency at inhibiting formation of toxic Aβ42 peptide: low potency
[2]
  outcome of large scale clinical trials: failed large scale clinical trials

## CC/C=C\C/C=C\C/C=C\CCCCCCCCC1(C(=O)O)CC1 [JIVA 27, ALA Cyclopropyl Fibrate]
[3]; 20 microM
  average signal triplicates: 0.355
  signal nomalised to cells: 0.201
  sign-bkgr: 0.236

## CC/C=C\C/C=C\C/C=C\CCCCCCCCC1(C(=O)OC(C)(C)C)CC1 [JIVA 25, ALA Cyclopropyl-fibrate t-butyl Ester]
[3]; 20 microM
  signal nomalised to cells: 0.209 and 0.130
  sign-bkgr: 0.316 and 0.173

## CC(C)C[C@H](C(=O)O)c1cc(-c2ccc(C(F)(F)F)cc2)cc(-c2ccc(C(F)(F)F)cc2)c1 [JNJ-40418677]
[1]
  Aβ42 IC50: potent
[4]
  brain penetration: greater brain penetration

## CC/C=C\C/C=C\C/C=C\C/C=C\C/C=C\CCCCC1(C(=O)OC(C)(C)C)CC1 [JIVA 24, EPA Cyclopropyl-fibrate t-butyl Ester]
[3]; 7.13 microM
  average signal triplicates: 0.300
  signal nomalised to cells: 0.233
  sign-bkgr: 0.246

## O=C(O)C1(c2ccc(-c3ccc(Cl)c(Cl)c3)c(F)c2)CC1 [CHF-5074]
[1]
  Aβ42 IC50: potent
[4]
  brain penetration: greater brain penetration

## CC/C=C\C/C=C\C/C=C\C/C=C\C/C=C\C/C=C\CCC(=O)O [DHA, cis,cis,cis,cis,cis,cis-4,7,10,13,16,19-docosahexaenoic acid]
[5]
  effects on cognitive function: beneficial effects

## CC/C=C\C/C=C\C/C=C\CCCCCCCCC(C(=O)O)C1CC1 (centres unmarked) [JIVA 29, ALA Cyclopropyl Acetic Acid Fibrate]
[3]; 20 microM
  average signal triplicates: 0.141
  signal nomalised to cells: 0.026
  sign-bkgr: 0.021

## CC(C)[C@H](O)C(=O)N[C@@H](C)C(=O)N[C@@H]1C(=O)N(C)CCc2ccccc21 [SEMAGACESTAT, semagacestat, reference compound]
[3]; 2 microM
  average signal triplicates: 0.12
  signal nomalised to cells: 0.000
  sign-bkgr: 0

## CC/C=C\C/C=C\C/C=C\C/C=C\C/C=C\CCCCC(C(=O)O)C1CC1 (racemic) [JIVA 28, EPA Cyclopropyl-acetic acid-fibrate]
[3]; 21.4 nM
  experiment 1: 101
  experiment 2: 103
  experiment 3: 104
  bestfit2: 100.0
  bestfit3: 100.0
[3]; 21.4 nM, listed as JIVA002B
  bestfit1: 100.0 and 99.9
[3]; 74.1 nM
  experiment 1: 98
  experiment 2: 102
  experiment 3: 108
  bestfit2: 99.9
[3]; 74.1 nM, listed as JIVA002B
  bestfit1: 99.8 and 99.7
  bestfit3: 99.9 and 99.8
[3]; 100.0 nM
  experiment 1: 102
  experiment 2: 99
  experiment 3: 97
[3]; 100.0 nM, listed as JIVA002B
  bestfit1: 99.8 and 99.6
  bestfit2: 99.9 and 99.6
  bestfit3: 99.9 and 99.5
[3]; 213.8 nM
  experiment 1: 101
  experiment 2: 95
  experiment 3: 100
[3]; 213.8 nM, listed as JIVA002B
  bestfit1: 99.5 and 99.1
  bestfit2: 99.7 and 99.6
  bestfit3: 99.7 and 99.5
[3]; 741.3 nM
  experiment 1: 97
  experiment 2: 100
  experiment 3: 94
[3]; 741.3 nM, listed as JIVA002B
  bestfit1: 98.5 and 97.0
  bestfit2: 99.1 and 98.6
  bestfit3: 99.0 and 98.3
[3]; 1000.0 nM
  experiment 2: 101
  experiment 3: 104
[3]; 1000.0 nM, listed as JIVA002B
  experiment 1: 96 and 95
  bestfit1: 97.8 and 96.0
  bestfit2: 99.8 and 98.2
  bestfit3: 98.6 and 97.8
[3]; 2138.0 nM
  experiment 1: 90
  experiment 2: 98
  experiment 3: 90
[3]; 2138.0 nM, listed as JIVA002B
  bestfit2: 97.5 and 96.2
  bestfit3: 97.1 and 95.4
[3]; 7413.1 nM
  experiment 2: 85
[3]; 7413.1 nM, listed as JIVA002B
  experiment 1: 90 and 75
  experiment 3: 96 and 79
  bestfit1: 85.6 and 76.4
  bestfit2: 91.9 and 87.9
  bestfit3: 90.5 and 85.6
[3]; 10000.0 nM
  experiment 2: 85
[3]; 10000.0 nM, listed as JIVA002B
  experiment 1: 88 and 71
  bestfit1: 81.5 and 70.6
  bestfit2: 89.4 and 84.4
  bestfit3: 87.7 and 81.5
[3]; 21379.5 nM, listed as JIVA002B
  experiment 1: 73 and 58
  experiment 2: 73 and 62
  experiment 3: 79 and 64
  bestfit1: 57.3 and 52.9
  bestfit2: 79.7 and 71.6
  bestfit3: 76.9 and 67.3
[3]; 74131.0 nM
  experiment 2: 46
[3]; 74131.0 nM, listed as JIVA002B
  experiment 1: 28 and 18
  experiment 3: 57 and 33
  bestfit2: 53.1 and 42.1
  bestfit3: 48.9 and 37.2
[3]; [6]
  experiment 1: 26 and 13
  experiment 2: 49 and 33
  experiment 3: 46 and 27
  bestfit2: 45.7 and 35.1
  bestfit3: 41.5 and 30.5
[3]; 1000000.0 nM
  experiment 1: 2
  experiment 2: 8
  experiment 3: 2
[3]; [7]
  bestfit1: 4.2 and 2.3
  bestfit2: 7.7 and 5.1
  bestfit3: 6.6 and 4.2
[3]; 20 microM
  average signal triplicates: 0.162
  signal nomalised to cells: 0.034
  sign-bkgr: 0.042
[3]; first, experiment 1
  pIC50: 4.36 and 4.62
[3]; second, experiment 2
  pIC50: 4.08 and 4.27
[3]; third, experiment 3
  pIC50: 4.15 and 4.36
